Results reported in patent publication US9776995B2, “Bicyclic sulfonamide compounds as sodium channel inhibitors” (AMGEN INC., priority 2013, dated 2017).
Read-outs that look alike come from different tables or passages of the source.

Tests used:
[1] = molecular target: Nav 1.7 (Homo sapiens (Human), UniProt Q15858); test: in-vitro Nav 1.7 PX data; format: cell-based
[2] = molecular target: Nav 1.5 (Homo sapiens (Human), UniProt Q14524); test: in-vitro Nav 1.5 PX data; details: read-out: Nav 1.5 PX IC50
Sequence of Nav 1.5 (Q14524 whole entry): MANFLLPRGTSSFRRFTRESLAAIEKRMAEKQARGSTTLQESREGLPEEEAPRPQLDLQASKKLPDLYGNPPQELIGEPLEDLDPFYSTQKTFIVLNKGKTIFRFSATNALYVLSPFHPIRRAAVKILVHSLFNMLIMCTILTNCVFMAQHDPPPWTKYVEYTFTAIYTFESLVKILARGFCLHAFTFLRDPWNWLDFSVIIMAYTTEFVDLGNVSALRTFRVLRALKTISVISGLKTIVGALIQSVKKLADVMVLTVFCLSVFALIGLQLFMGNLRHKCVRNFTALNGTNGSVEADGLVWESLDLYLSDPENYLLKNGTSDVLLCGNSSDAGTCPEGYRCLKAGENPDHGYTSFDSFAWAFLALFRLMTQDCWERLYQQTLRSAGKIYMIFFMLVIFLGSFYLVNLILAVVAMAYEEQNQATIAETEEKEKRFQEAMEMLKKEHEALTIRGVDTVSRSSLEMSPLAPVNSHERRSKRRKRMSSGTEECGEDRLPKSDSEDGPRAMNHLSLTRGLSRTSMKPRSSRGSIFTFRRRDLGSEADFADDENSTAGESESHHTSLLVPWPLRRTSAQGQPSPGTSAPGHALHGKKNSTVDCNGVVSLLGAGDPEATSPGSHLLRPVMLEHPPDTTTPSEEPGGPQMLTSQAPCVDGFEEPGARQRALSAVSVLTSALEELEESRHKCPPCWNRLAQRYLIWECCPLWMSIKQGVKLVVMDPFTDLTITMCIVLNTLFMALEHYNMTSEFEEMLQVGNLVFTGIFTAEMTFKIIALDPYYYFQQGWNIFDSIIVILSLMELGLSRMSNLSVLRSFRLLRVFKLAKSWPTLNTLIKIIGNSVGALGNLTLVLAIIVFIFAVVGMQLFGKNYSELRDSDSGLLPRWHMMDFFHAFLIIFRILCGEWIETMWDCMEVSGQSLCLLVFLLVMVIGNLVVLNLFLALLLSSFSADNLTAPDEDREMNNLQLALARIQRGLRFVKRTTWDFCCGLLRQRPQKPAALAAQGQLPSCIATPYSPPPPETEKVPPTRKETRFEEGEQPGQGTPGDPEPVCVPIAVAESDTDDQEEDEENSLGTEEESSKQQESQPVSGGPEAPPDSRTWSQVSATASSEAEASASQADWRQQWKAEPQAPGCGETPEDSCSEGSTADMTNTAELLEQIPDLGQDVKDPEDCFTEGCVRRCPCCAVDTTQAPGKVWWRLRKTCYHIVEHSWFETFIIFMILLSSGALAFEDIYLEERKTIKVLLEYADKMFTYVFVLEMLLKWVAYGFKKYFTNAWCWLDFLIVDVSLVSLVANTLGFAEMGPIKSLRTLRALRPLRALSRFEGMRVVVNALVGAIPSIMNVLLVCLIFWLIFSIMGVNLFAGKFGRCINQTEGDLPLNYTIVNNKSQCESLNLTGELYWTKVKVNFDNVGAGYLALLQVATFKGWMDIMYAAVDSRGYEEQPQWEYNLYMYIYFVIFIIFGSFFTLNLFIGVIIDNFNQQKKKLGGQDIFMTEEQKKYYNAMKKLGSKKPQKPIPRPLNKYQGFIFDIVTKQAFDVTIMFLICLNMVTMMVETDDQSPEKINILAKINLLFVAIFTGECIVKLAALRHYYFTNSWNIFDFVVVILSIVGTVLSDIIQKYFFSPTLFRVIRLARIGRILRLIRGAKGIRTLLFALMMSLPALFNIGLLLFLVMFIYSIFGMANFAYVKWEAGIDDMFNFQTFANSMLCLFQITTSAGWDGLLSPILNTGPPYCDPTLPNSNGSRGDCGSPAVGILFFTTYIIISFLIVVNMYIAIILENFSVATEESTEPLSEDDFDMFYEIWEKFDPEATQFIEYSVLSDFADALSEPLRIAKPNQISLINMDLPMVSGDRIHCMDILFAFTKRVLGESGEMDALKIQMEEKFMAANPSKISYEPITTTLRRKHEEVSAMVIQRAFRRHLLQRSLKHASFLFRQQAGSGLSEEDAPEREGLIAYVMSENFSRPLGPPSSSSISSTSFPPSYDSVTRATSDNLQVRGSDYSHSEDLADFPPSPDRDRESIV

Sequence of Nav 1.7 (Q15858 whole entry): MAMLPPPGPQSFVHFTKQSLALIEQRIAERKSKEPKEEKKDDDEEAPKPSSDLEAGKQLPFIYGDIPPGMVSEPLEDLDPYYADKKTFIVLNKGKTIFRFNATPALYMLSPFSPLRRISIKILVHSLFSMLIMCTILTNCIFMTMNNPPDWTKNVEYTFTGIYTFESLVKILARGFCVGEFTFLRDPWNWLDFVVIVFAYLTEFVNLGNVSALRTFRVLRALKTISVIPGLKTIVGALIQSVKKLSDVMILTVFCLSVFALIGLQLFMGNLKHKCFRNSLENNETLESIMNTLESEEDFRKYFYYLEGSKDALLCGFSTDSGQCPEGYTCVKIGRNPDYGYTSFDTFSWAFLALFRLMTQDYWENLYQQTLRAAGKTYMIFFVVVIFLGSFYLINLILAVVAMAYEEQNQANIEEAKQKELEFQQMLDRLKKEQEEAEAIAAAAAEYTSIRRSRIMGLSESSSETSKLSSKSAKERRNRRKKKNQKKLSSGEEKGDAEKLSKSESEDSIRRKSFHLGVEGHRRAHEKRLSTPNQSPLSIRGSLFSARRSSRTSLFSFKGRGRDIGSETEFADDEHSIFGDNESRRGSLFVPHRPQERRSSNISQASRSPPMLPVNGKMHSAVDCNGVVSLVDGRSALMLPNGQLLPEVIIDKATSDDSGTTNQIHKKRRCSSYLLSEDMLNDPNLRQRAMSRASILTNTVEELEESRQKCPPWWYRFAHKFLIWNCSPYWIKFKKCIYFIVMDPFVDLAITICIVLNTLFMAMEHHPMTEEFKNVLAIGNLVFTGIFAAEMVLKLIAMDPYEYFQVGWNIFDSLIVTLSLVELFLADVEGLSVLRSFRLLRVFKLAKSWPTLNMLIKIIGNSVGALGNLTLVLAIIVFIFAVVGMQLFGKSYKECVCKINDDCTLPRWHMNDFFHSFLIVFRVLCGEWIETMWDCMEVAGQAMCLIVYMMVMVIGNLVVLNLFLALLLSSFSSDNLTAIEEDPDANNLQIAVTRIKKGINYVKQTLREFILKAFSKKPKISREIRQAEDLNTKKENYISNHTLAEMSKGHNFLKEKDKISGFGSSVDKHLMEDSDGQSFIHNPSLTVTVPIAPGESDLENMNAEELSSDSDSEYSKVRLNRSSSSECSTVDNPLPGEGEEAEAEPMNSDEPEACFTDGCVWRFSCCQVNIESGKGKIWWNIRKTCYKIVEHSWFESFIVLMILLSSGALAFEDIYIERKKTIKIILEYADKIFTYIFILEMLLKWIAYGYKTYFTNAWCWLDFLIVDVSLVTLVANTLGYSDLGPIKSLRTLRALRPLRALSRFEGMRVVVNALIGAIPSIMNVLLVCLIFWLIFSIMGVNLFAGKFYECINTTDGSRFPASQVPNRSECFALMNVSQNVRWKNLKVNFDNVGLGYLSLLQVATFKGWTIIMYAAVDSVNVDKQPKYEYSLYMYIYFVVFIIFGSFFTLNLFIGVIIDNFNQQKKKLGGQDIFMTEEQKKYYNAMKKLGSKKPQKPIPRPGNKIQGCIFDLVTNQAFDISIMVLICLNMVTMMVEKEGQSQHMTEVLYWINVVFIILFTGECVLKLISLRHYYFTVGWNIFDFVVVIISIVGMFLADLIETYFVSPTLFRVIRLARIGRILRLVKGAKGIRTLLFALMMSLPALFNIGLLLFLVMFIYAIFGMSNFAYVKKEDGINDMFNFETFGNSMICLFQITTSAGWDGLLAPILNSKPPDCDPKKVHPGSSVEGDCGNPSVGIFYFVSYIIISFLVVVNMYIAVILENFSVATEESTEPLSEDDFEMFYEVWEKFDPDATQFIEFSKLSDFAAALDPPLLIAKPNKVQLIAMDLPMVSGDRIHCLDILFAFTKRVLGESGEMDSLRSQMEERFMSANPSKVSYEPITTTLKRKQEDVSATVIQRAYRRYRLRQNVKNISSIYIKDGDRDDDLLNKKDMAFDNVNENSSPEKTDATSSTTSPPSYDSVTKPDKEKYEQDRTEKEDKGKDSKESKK

Compound	IC50 ([1]; in-vitro PX data) [µM]	IC50 ([1]; in-vitro Nav 1.7 PX data) [µM]	IC50 ([2]; in-vitro PX data) [µM]	IC50 ([2]; in-vitro Nav 1.5 PX data) [µM]
COc1cc(-c2cccc(F)c2)c(Cl)cc1-c1nncc2cc(S(=O)(=O)Nc3ncccn3)ccc12 [Example 113, 1-(2-chloro-3′-fluoro-5-methoxy-4-biphenylyl)-N-2-pyrimidinyl-6-phthalazinesulfonamide]	0.095		> 10	
COc1cc(-c2cccc(C(F)(F)F)c2)c(F)cc1-c1nccc2cc(S(=O)(=O)Nc3ccon3)ccc12 [Example 115, 1-(2-fluoro-5-methoxy-3′-(trifluoromethyl)-4-biphenylyl)-N-3-isoxazolyl-6-isoquinolinesulfonamide]	0.0135		> 10	
COc1cc(Cl)c(-c2cccc(F)c2)cc1-c1nccc2cc(S(=O)(=O)Nc3ncccn3)ccc12 [Example 122, 1-(6-chloro-3′-fluoro-4-methoxy-3-biphenylyl)-N-2-pyrimidinyl-6-isoquinolinesulfonamide]	0.112		> 10	
COc1cc(-c2cc(F)cc(F)c2)ccc1-c1nccc2cc(S(=O)(=O)Nc3ncccn3)ccc12 [Example 123, 1-(3′,5′-difluoro-3-methoxy-4-biphenylyl)-N-2-pyrimidinyl-6-isoquinolinesulfonamide]	0.171		> 10	
COc1cc(NS(=O)(=O)c2ccc3c(-c4ccc(-c5cc(F)cc(F)c5)cc4OC)nccc3c2)ncn1 [Example 125, 1-(3′,5′-difluoro-3-methoxy-4-biphenylyl)-N-(6-methoxy-4-pyrimidinyl)-6-isoquinolinesulfonamide]	0.497		> 10	
COc1cc(-c2cc(F)cc(F)c2)ccc1-c1nccc2cc(S(=O)(=O)Nc3ncon3)ccc12 [Example 127, 1-(3′,5′-difluoro-3-methoxy-4-biphenylyl)-N-1,2,4-oxadiazol-3-yl-6-isoquinolinesulfonamide]	0.106		> 10	
COc1cc(-c2cc(F)cc(F)c2)ccc1-c1nccc2cc(S(=O)(=O)Nc3cnsn3)ccc12 [Example 129, 1-(3′,5′-difluoro-3-methoxy-4-biphenylyl)-N-1,2,5-thiadiazol-3-yl-6-isoquinolinesulfonamide]	0.428		> 10	
COc1cc(-c2cc(F)cc(F)c2)ccc1-c1nccc2cc(S(=O)(=O)Nc3nc(C)ns3)ccc12 [Example 130, 1-(3′,5′-difluoro-3-methoxy-4-biphenylyl)-N-(3-methyl-1,2,4-thiadiazol-5-yl)-6-isoquinolinesulfonamide]	1.04		> 30	
COc1cc(-c2cc(F)cc(F)c2)ccc1-c1nccc2cc(S(=O)(=O)Nc3ncc(F)cn3)ccc12 [Example 135, 1-(3′,5′-difluoro-3-methoxy-4-biphenylyl)-N-(5-fluoro-2-pyrimidinyl)-6-isoquinolinesulfonamide]	0.378		> 10	
COc1cc(-c2cc(F)cc(F)c2)ccc1-c1nccc2cc(S(=O)(=O)Nc3ncco3)ccc12 [Example 137, 1-(3′,5′-difluoro-3-methoxy-4-biphenylyl)-N-1,3-oxazol-2-yl-6-isoquinolinesulfonamide]	0.36		> 10	
COc1cc(-c2cc(F)cc(F)c2)ccc1-c1nccc2cc(S(=O)(=O)Nc3cccnn3)ccc12 [Example 138, 1-(3′,5′-difluoro-3-methoxy-4-biphenylyl)-N-3-pyridazinyl-6-isoquinolinesulfonamide]	0.251		> 10	
COc1cc(-c2cc(F)cc(F)c2)ccc1-c1nccc2cc(S(=O)(=O)Nc3ccon3)ccc12 [Example 142, 1-(3′,5′-difluoro-3-methoxy-4-biphenylyl)-N-3-isoxazolyl-6-isoquinolinesulfonamide]		0.168		> 30
O=S(=O)(Nc1ccon1)c1ccc2c(-c3ccc(-c4cccc(C(F)(F)F)c4)cc3CO)nccc2c1 [Example 146, 1-(3-(hydroxymethyl)-3′-(trifluoromethyl)-4-biphenylyl)-N-3-isoxazolyl-6-isoquinolinesulfonamide]		0.12		> 10
Cc1ccc(OCc2ccccc2)cc1-c1nccc2cc(S(=O)(=O)Nc3ccncn3)ccc12 [Example 151, 1-(5-(benzyloxy)-2-methylphenyl)-N-4-pyrimidinyl-6-isoquinolinesulfonamide]		0.424		> 30

Now from value to compound, other results behind:

IC50 ([1]; in-vitro PX data) [µM]	IC50 ([1]; in-vitro Nav 1.7 PX data) [µM]	Compound	IC50 ([2]; in-vitro PX data) [µM]	IC50 ([2]; in-vitro Nav 1.5 PX data) [µM]
0.0218		COc1cc(-c2cccc(Cl)c2)c(C#N)cc1-c1nccc2cc(S(=O)(=O)Nc3ccon3)ccc12 [Example 111, 1-(3′-chloro-2-cyano-5-methoxy-4-biphenylyl)-N-3-isoxazolyl-6-isoquinolinesulfonamide]	> 10	
0.0395		COc1cc(-c2cccc(C)c2)c(C#N)cc1-c1nccc2cc(S(=O)(=O)Nc3ccon3)ccc12 [Example 112, 1-(2-cyano-5-methoxy-3′-methyl-4-biphenylyl)-N-3-isoxazolyl-6-isoquinolinesulfonamide]	> 10	
0.0288		COc1cc(-c2cc(C)cc(Cl)c2)c(C#N)cc1-c1nccc2cc(S(=O)(=O)Nc3ccon3)ccc12 [Example 114, 1-(3′-chloro-2-cyano-5-methoxy-5′-methyl-4-biphenylyl)-N-3-isoxazolyl-6-isoquinolinesulfonamide]	> 10	
0.021		COc1cc(-c2cccc(C(F)(F)F)c2)c(C#N)cc1-c1nccc2cc(S(=O)(=O)Nc3ncon3)ccc12 [Example 118, 1-(2-cyano-5-methoxy-3′-(trifluoromethyl)-4-biphenylyl)-N-1,2,4-oxadiazol-3-yl-6-isoquinolinesulfonamide]	> 10	
0.141		COc1cc(-c2cccc(F)c2)c(Cl)cc1-c1nccc2cc(S(=O)(=O)Nc3cccnn3)ccc12 [Example 120, 1-(2-chloro-3′-fluoro-5-methoxy-4-biphenylyl)-N-3-pyridazinyl-6-isoquinolinesulfonamide]	> 10	
0.0917		COc1cc(Cl)c(-c2cccc(F)c2)cc1-c1nccc2cc(S(=O)(=O)Nc3ccon3)ccc12 [Example 121, 1-(6-chloro-3′-fluoro-4-methoxy-3-biphenylyl)-N-3-isoxazolyl-6-isoquinolinesulfonamide]	> 10	
	0.106	COc1cc(-c2cccc(F)c2)c(C#N)cc1-c1nccc2cc(S(=O)(=O)Nc3ccncn3)ccc12 [Example 144, 1-(2-cyano-3′-fluoro-5-methoxy-4-biphenylyl)-N-4-pyrimidinyl-6-isoquinolinesulfonamide]		> 10
	0.0719	COc1ccc(-c2ccc(C(F)(F)F)cc2)cc1-c1nccc2cc(S(=O)(=O)Nc3ccncn3)ccc12 [Example 147, 1-(4-methoxy-4′-(trifluoromethyl)-3-biphenylyl)-N-4-pyrimidinyl-6-isoquinolinesulfonamide]		> 10
	0.0435	COc1cc(-c2ccc(Cl)c(F)c2)c(C#N)cc1-c1nccc2cc(S(=O)(=O)Nc3ccncn3)ccc12 [Example 154, 1-(4′-chloro-2-cyano-3′-fluoro-5-methoxy-4-biphenylyl)-N-4-pyrimidinyl-6-isoquinolinesulfonamide]		> 30
	0.0455	COc1cc(-c2ccc(F)c(C)c2)c(C#N)cc1-c1nccc2cc(S(=O)(=O)Nc3ccncn3)ccc12 [Example 155, 1-(2-cyano-4′-fluoro-5-methoxy-3′-methyl-4-biphenylyl)-N-4-pyrimidinyl-6-isoquinolinesulfonamide]		23.4
	0.0473	COc1cc(-c2cccc(C)c2)c(C#N)cc1-c1nccc2cc(S(=O)(=O)Nc3ccncn3)ccc12 [Example 156, 1-(2-cyano-5-methoxy-3′-methyl-4-biphenylyl)-N-4-pyrimidinyl-6-isoquinolinesulfonamide]		30.8
	0.206	COc1cc(-c2ccccc2C)c(C#N)cc1-c1nccc2cc(S(=O)(=O)Nc3ccncn3)ccc12 [Example 157, 1-(2-cyano-5-methoxy-2′-methyl-4-biphenylyl)-N-4-pyrimidinyl-6-isoquinolinesulfonamide]		> 10
	0.0194	COc1cc(-c2ccc(F)c(Cl)c2)c(C#N)cc1-c1nccc2cc(S(=O)(=O)Nc3ccncn3)ccc12 [Example 158, 1-(3′-chloro-2-cyano-4′-fluoro-5-methoxy-4-biphenylyl)-N-4-pyrimidinyl-6-isoquinolinesulfonamide]		5.85
	0.0387	COc1cc(-c2ccc(C)c(Cl)c2)c(C#N)cc1-c1nccc2cc(S(=O)(=O)Nc3ccncn3)ccc12 [Example 159, 1-(3′-chloro-2-cyano-5-methoxy-4′-methyl-4-biphenylyl)-N-4-pyrimidinyl-6-isoquinolinesulfonamide]		> 30
	0.0138	COc1cc(-c2cc(C)cc(Cl)c2)c(C#N)cc1-c1nccc2cc(S(=O)(=O)Nc3ccncn3)ccc12 [Example 160, 1-(3′-chloro-2-cyano-5-methoxy-5′-methyl-4-biphenylyl)-N-4-pyrimidinyl-6-isoquinolinesulfonamide]		18.3
	0.0174	COc1cc(-c2ccc(Cl)c(C)c2)c(C#N)cc1-c1nccc2cc(S(=O)(=O)Nc3ccncn3)ccc12 [Example 161, 1-(4′-chloro-2-cyano-5-methoxy-3′-methyl-4-biphenylyl)-N-4-pyrimidinyl-6-isoquinolinesulfonamide]		> 30
	0.47	COc1ccc(F)cc1-c1cc(OC)c(-c2nccc3cc(S(=O)(=O)Nc4ccncn4)ccc23)cc1C#N [Example 162, 1-(2-cyano-5′-fluoro-2′,5-dimethoxy-4-biphenylyl)-N-4-pyrimidinyl-6-isoquinolinesulfonamide]		> 10
	0.0921	COc1cc(-c2ccc(C)c(F)c2)c(C#N)cc1-c1nccc2cc(S(=O)(=O)Nc3ccncn3)ccc12 [Example 163, 1-(2-cyano-3′-fluoro-5-methoxy-4′-methyl-4-biphenylyl)-N-4-pyrimidinyl-6-isoquinolinesulfonamide]		> 10
